Experimental data taken from patent publication US20240156872A1, “Use of Chaperone-Mediated Autophagy Activators For Treating Or Preventing Blood Cancers And Myelodysplastic Syndromes And Enriching Hematopoietic Stem Cell Populations” (ALBERT EINSTEIN COLLEGE OF MEDICINE, priority 2021, published 2024).

Key:
[1] = system: Bead sorted CD34+ MNC from patients over 55 years of age; test: FACS quantification of phenotypical HSC (HSPCs) in CD34+ MNC after 72 hours in HSC maintenance cultures; type: cell-based, human; details: for long-term HSCs (LT-HSC; CD90+, CD49f+, CD34+, CD38−, Lin-): short term ex vivo culture vs vehicle (FIG. 17)
Procedure: FIG. 15. Representative FACS data and gating strategy. Bead sorted CD34+ MNC from patients over 55 years of age were treated with compounds 77.1, 77.43, 77.36, B13, B19 or vehicle control for 72 hours in HSC maintenance cultures. The experimental readout is quantification of phenotypical HSC (HSPCs) by FACS analysis. […] Results also identified a positive trend in HSC number from a HC derived specimen.

Ctrl and L2AKO HSC = test: Colony formation and serial re-plating assay with Ctrl and L2AKO HSC with supplemented media; type: cell-based, mouse
Excerpt: Colony formation and serial re-plating assays. […] Colonies were scored after 10 to 12 days for mouse and 14 to 16 days for human cells using an Inverted Infinity and Phase Contrast Microscope (Fisher Scientific).

[2] = system: CMA in HSC from KFERQ-Dendra mice; test: KFERQ-Dendra CMA reporter in HSC after in vivo activation; set-up: species or system mouse
Excerpt: Mice. Hematopoietic system specific L2A KO mice were created by crossing C57BL/6 Vav-iCre mice with C57BL/6 L2Af/f mice. […] For the aging studies, 3-4 months (labeled as 4 m) and 25-30 m (labeled as >25 m) male mice were used in the young and old group, respectively. KFERQ-Dendra2 transgenic mice and KFERQ-Dendra mice defective in CMA (KFERQ-Dendra-L2AKO) were generated as described before. […] Young and old controls were similarly injected with tamoxifen. […] KFERQ-Dendra mice with extra copy of human L2A (KFERQ-Dendra-hL2AOE) were generated by breeding KFERQ-Dendra male mice with hL2AOE mice. […] Bone marrow was analyzed at the same times. Data is from the analysis 8 days post-injection, unless otherwise specified. For serial 5FU injections, mice were injected every week and 7 days post injection blood was taken and blood counts measured as above and dead mice and time of death were registered. […] The CMA activator (CA 20 mg/Kg b.w. per mouse day for 2 months) was administered orally in the form of sucralose gelatin agar pills.
Immunofluorescence staining. HSC or myeloid progenitor cells were directly sorted into 16-well slides pre-coated with Cell-Tak Cell Tissue Adhesive (Coming, 354240) and then fixed with 4% PFA for 15 min at room temperature (RT). For LAMP2A, LAMP1, total human LAMP2 and FADS2 staining, slides were washed with PBS and incubated with blocking buffer (5% goat serum/0.3% TrionX-100 in PBS) for 1 hour at RT and incubated ovemight at 4° C. with the first antibody diluted in 1% BSA/0.3% TritonX-100 followed by 40 min incubation at RT with fluorescence-conjugated secondary antibodies. Cells were washed 3 times with PBS and mounted with mounting medium with DAPI (Southern biotech). […] Oxidized proteins were detected with OxyICC Oxidized Protein Detection Kit from Sigma (S7350) and protein inclusions were detected with PROTEOSTAT Aggresome detection kit from ENZO (ENZ-51035) following manufacturer's instructions. […] For analysis of CMA activity using direct fluorescence and the KFERQ-Dendra CMA reporter, cells isolated from KFERQ-Dendra2 transgenic mice were fixed with 2% PFA for 5 min at RT and mounted for direct puncta counting or subjected for immunofluorescence as described above. Quantification was performed in TIFF converted images upon thresholding using the 3D object counter tool of Image J software (NIH). Average number of puncta per cell was determined for each of the cells in a field and at least 3 different fields per animal were counted. Where indicated, we also calculated the percentage of cells active for CMA, defined as those with at least two Dendra positive puncta. […] CMA flux was calculated as the increase in number of Dendra positive puncta upon leupeptin treatment. […]

[3] = system: human CD34+ cells from old (>65 year) multi-myeloma patients; details: CD34+ cells from old (>65 years) patients, ex vivo GLA
Excerpt: Human hematopoietic stem and progenitor cells. Mobilized peripheral blood from multiple myeloma patients (59-71 years old) was enriched for mononuclear cells by density gradient centrifugation using Ficoll-Paque PLUS (GE Healthcare). Mono-nuclear cells were further enriched for CD34+ cells using immunomagnetic bead sorting (CD34 MicroBead Kit, human; Miltenyi Biotec) according to the manufacturer's protocol. The isolated CD34+cells were then used for LTC-IC or colony formation assays. LTC-IC assay. To assess LTC-IC frequencies, serial dilutions of FACS-sorted mouse Lin-Sca-l+c-Kit+ (LSK) cells or CD34+enriched human HSPCs were plated in MyeloCult [MUT] for mouse or MyeloCult [MUT] for human ([sequence] Technologies) mixed at 50:50 ratio with primary mouse stroma cell-conditioned medium or with HS5-conditioned medium for human cells. For each cell dose (1:10, 1:20, 1:40, 1:80, 1:160 for mouse LSK cells, 1:50, 1:100, 1:200, 1:400, 1:800 for human HSPC), 10 technical replicates were performed. […] For CFU-C counting, in the case of mouse samples, wells containing any type of colonies were scored as positive, while in the case of human samples, only wells with GEMM colonies were scored as positive. […]

HSC from old (22 m) mice = details: daily injections of GLA (1mg/kg bw) for 7 weeks vs saline
Procedure: Mice. […] For the aging studies, 3-4 months (labeled as 4 m) and 25-30 m (labeled as >25 m) male mice were used in the young and old group, respectively. […] For GLA supplementation, old mice (>25 m) were injected with either saline or GLA (1mg/kg bw) for 40 days.
Colony formation and serial re-plating assays. Sorted mouse HSC (180 cells Lin−/cKit+/Scal+/CD48−/CD150+) or CD34-enriched human HSPC (5,000 cells) were plated into methylcellulose media ([sequence] Technologies, MethoCult M 3434 for mouse or MethoCult H4434 for human) according to the manufacturer's protocols. Colonies were scored after 10 to 12 days for mouse and 14 to 16 days for human cells using an Inverted Infinity and Phase Contrast Microscope (Fisher Scientific). […] Where indicated, media was supplemented with 100 nM FADS2 inhibitor SC-26196 (Sigma, PZ0176), 100 μM γ-linolenic fatty acid (GLA) (Sigma, L2378), 100 μtM NAC (Sigma, A7250) or 5 mM Methyl-pyruvate (Sigma, 371173).

## Clc1ccc2nc(-c3ccc(Nc4cnccn4)cc3)cnc2c1 [CA77.36, N-(4-(6-chloroquinoxalin-2-yl)phenyl)pyrazin-2-amine]
[1]
  long-term HSCs (LT-HSC; CD90+, CD49f+, CD34+, CD38−, Lin-): significantly more long-term HSCs (LT-HSC) than vehicle

## CC(=O)N[C@@H](CS)C(=O)O [NAC, N-acetylcysteine]
Ctrl and L2AKO HSC; L2AKO HSC, NAC from the 1st plating
  long-term colony initiation abilities of L2AKO HSC (total colony numbers in 3rd plating): restored their ex vivo long-term colony initiation abilities

## polyI:C
[2]; 48 hours after injection of PolyI:C vs vehicle
  CMA activity in HSC (Dendra puncta per cell): upregulated CMA

## O=c1[nH]cc(F)c(=O)[nH]1 [5FU, 5-fluorouracil]
[2]; after 5FU injection
  time of CMA returning to basal levels in HSC: 16 days
  time of maximal CMA upregulation in HSC: 8 days
[2]; after single injection of 5FU
  CMA activity in HSC (Dendra puncta per cell): further upregulate CMA

## CC(=O)Nc1ccc(-c2cnc3cc(Cl)ccc3n2)cc1 [CA77.1, N-(4-(6-chloroquinoxalin-2-yl)phenyl)acetamide]
[1]; AML patient derived specimen, 72 hours vs vehicle
  number of phenotypical HSCs by FACS: detectable and significant increase in HSCs
[1]
  long-term HSCs (LT-HSC; CD90+, CD49f+, CD34+, CD38−, Lin-): significantly more long-term HSCs (LT-HSC) than vehicle

## Cc1nnc(-c2ccc(-c3cnc4cc(Cl)ccc4n3)cc2)[nH]1 [CA77.43, 6-chloro-2-(4-(5-methyl-4H-1,2,4-triazol-3-yl)phenyl)quinoxaline]
[1]
  long-term HSCs (LT-HSC; CD90+, CD49f+, CD34+, CD38−, Lin-): significantly more long-term HSCs (LT-HSC) than vehicle

## N#CC(CCCN1CCN(/N=C/c2cccnc2)CC1)(c1ccccc1)c1ccccc1 [SC-26196]
Ctrl and L2AKO HSC; control cells, 100 nM FADS2 inhibitor SC-26196, first plating
  self-renewal ability of control HSC (colony numbers): sufficient to reduce self-renewal ability of control cells

## CCCCC/C=C\C/C=C\C/C=C\CCCCC(=O)O [GLA, γ-linolenic acid]
[3]
  number of functional human stem cells in long-term cultures (LTC-IC): increased the number of functional human stem cells in long-term cultures
HSC from old (22 m) mice
  HSC function by colony formation: improved HSC function as assessed by colony formation
Ctrl and L2AKO HSC; L2AKO HSC, GLA supplemented media, ex vivo
  self-renewal capacity of CMA-defective (L2AKO) HSC (colony numbers): restored their self-renewal capacity ex vivo
